Data reported in paper PMC12401175, “Construction of hyperthermostable D‐allulose 3‐epimerase from Arthrobacter globiformis M30 using the sequence information from Arthrobacter psychrolactophilus” (FEBS Open Bio, 2025).
Read-outs that look alike come from different tables or passages of the source.

Legend:
AgDAE [1] = target: T1, AgDAE (Arthrobacter globiformis, UniProt A0A1L7NQ96); assay type: biochemical; settings: 50 °C, 50 mM sodium phosphate pH 8.0, 2 mM MgSO4; read-out: Allulose → Fructose / K m
T1 sequence (A0A1L7NQ96 1-289): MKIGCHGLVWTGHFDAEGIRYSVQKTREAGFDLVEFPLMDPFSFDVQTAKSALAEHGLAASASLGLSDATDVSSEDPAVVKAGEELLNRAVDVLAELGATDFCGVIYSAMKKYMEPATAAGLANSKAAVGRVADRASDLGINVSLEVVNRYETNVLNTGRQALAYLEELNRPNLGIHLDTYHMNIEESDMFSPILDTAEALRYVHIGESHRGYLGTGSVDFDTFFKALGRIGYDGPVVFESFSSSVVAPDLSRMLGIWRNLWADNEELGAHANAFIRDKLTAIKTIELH

AgDAE [2] = target: T1, AgDAE; assay type: biochemical; settings: 50 °C, 50 mM sodium phosphate pH 8.0, 2 mM MgSO4; read-out: Fructose → Allulose / K m

Row | Compound | Km (AgDAE [1]) [mM] | Km (AgDAE [2]) [mM]
1 | OCC1(O)OC[C@@H](O)[C@@H](O)[C@H]1O (stereo partly drawn) [D-allulose] | 11.7 ± 0.7 | 
2 | OCC1(O)OC[C@@H](O)[C@@H](O)[C@@H]1O (stereo partly drawn) [D-fructose] |  | 21.1 ± 5.6
